Literature values as cited in paper PMC12239574 (mBio, 2025).

System: SARS-CoV-2 with M^pro E166V

Compound: Cn1cnc(Cn2c(=O)[nH]/c(=N\c3cc4cn(C)nc4cc3Cl)n(Cc3cc(F)c(F)cc3F)c2=O)n1 [ensitrelvir]
- fold increase in the antiviral EC50 relative to the wild-type virus: 23 fold

Compound: CC(C)(C)[C@H](NC(=O)C(F)(F)F)C(=O)N1C[C@H]2[C@@H]([C@H]1C(=O)N[C@H](C#N)C[C@@H]1CCNC1=O)C2(C)C [nirmatrelvir]
- fold increase in the antiviral EC50 relative to the wild-type virus: 100 fold
